# Laboratory results as given in US6815460B2, “Process for preparing prodrugs of benzenesulfonamide-containing cox-2 inhibitors” (Pharmacia Corporation, priority 1996, dated 2004).
# Counter-ions that a name gives are not always drawn.
row,Compound,melting point
1,"Cc1onc(-c2ccccc2)c1-c1ccc(S(=O)(=O)NC(=O)C(C)C)cc1 [Example 15, 2-Methyl-N-[[4-(5-methyl-3-phenylisoxazol-4-yl)phenyl]sulfonyl]propanamide]",115 to 115.6 °C
2,"CC(=O)NS(=O)(=O)c1ccc(-c2oc(C)nc2-c2ccccc2)cc1 (as salt: sodium) [Example 49, N-[[4-(2-Methyl-4-phenyloxazol-5-yl)phenyl]sulfonyl]acetamide, Sodium Salt]",259.9 to 260 °C
3,"CCCC(=O)NS(=O)(=O)c1ccc(-n2cc(C(F)(F)F)nc2-c2cncc(C)c2)cc1 [Example 7, N-[[4-[2-(5-Methylpyridin-3-yl)-4-(trifluoromethyl)-1H-imidazol-1-yl]phenyl]sulfonyl]butanamide]",203 to 204 °C
4,"CC(=O)NS(=O)(=O)c1ccc(-n2cc(C(F)(F)F)nc2-c2cccnc2C)cc1 [Example 5, N-[[4-[2-(2-Methylpyridin-3-yl)-4-(trifluoromethyl)-1H-imidazol-1-yl]phenyl]sulfonyl]acetamide]",243 to 245 °C
5,"COC(=O)CCC(=O)NS(=O)(=O)c1ccc(-c2c(-c3ccccc3)noc2C)cc1 [Example 23, Methyl 4-[[[4-(5-methyl-3-phenylisoxazol-4-yl]phenyl]sulfonyl]amino]-4-oxobutanoate]",114.9 to 117.7 °C
6,"Cc1onc(-c2ccccc2)c1-c1ccc(S(=O)(=O)NC=O)cc1 [Example 60, N-[[4-(5-Methyl-3-phenylisoxazol-4-yl)phenyl]sulfonyl]formamide]",111 to 122 °C
7,"CC(=O)NS(=O)(=O)c1ccc(C2=C(c3ccc(F)c(Cl)c3)CCC2)cc1 [Example 65, N-[[4-[2-(3-Chloro-4-fluorophenyl)cyclopenten-1-yl]phenyl]sulfonyl]acetamide]",127 to 129 °C
8,"CC(=O)NS(=O)(=O)c1ccc(-c2oc(C)nc2-c2ccccc2)cc1 [Example 48, N-[[4-(2-Methyl-4-phenyloxazol-5-yl)phenyl]sulfonyl]acetamide]",220.7 to 221 °C
9,"CNS(=O)(=O)c1ccc(C2=C(c3ccc(F)cc3)CCC2)cc1 [Example 64, 4-[2-(4-Fluorophenyl)cyclopenten-1-yl]-N-methylbenzenesulfonamide]",121 to 122 °C
10,"CNS(=O)(=O)c1ccc(-n2cccc2-c2ccc(F)cc2)cc1 [Example 78, 4-[2-(4-Fluorophenyl)-1H-pyrrol-1-yl]-N-methylbenzenesulfonamide]",174 °C
11,"CC(=O)NS(=O)(=O)c1ccc(-c2c(-c3ccccc3)noc2CO)cc1 [Example 74, N-[[4-[5-Hydroxymethyl-3-phenylisoxaxzol-4-yl]phenyl]sulfonyl]acetamide]",94 to 103 °C
12,"CC(=O)NS(=O)(=O)c1ccc(-n2cc(C(F)(F)F)nc2-c2cncc(C)c2)cc1 [Example 3, N-[[4-[2-(5-Methylpyridin-3-yl)-4-(trifluoromethyl)-1H-imidazol-1-yl]phenyl]sulfonyl]acetamide]",268 to 270 °C
13,COc1ccc2c(c1F)CSc1c(C(F)(F)F)nn(-c3ccc(S(=O)(=O)NC(C)=O)cc3)c1-2.[Na],183 to 191.1 °C
14,"Cc1onc(-c2ccccc2)c1-c1ccc(S(=O)(=O)NC(=O)CCC(=O)O)cc1 [Example 58, 4-[[[4-(5-Methyl-3-phenylisoxazol-4-yl)phenyl]sulfonyl]amino]-4-oxobutanoic Acid]",158.4 to 165.4 °C
15,"CCC(=O)[N-]S(=O)(=O)c1ccc(-n2cc(C(F)(F)F)nc2-c2cccnc2C)cc1.[Na+] [Example 85, N-[[4-(2-(2-Methylpyridin-3-yl)-4-trifluoromethylimidazol-1-yl]phenyl]sulfonyl]propanamide, Sodium Salt]",298 °C (dec.)
16,CCOCC(=O)NS(=O)(=O)c1ccc(-c2c(-c3ccccc3)noc2C)cc1.[Na],207.2 to 210 °C
17,COc1ccc2c(c1F)CSc1c(C(F)F)nn(-c3ccc(S(=O)(=O)NC(C)=O)cc3)c1-2.[Na],> 300 °C
18,"CCC(=O)NS(=O)(=O)c1ccc(-c2c(-c3ccccc3)noc2C(F)F)cc1 [Example 54, N-[[4-[5-(Difluoromethyl)-3-phenylisoxazol-4-yl]phenyl]sulfonyl]propanamide]",136.9 to 141 °C
19,"Cc1onc(-c2ccccc2)c1-c1ccc(S(=O)(=O)NC(=O)c2ccccc2)cc1 [Example 19, N-[[4-(5-Methyl-3-phenylisoxazol-4-yl)phenyl]sulfonyl]benzamide]",208.8 to 210.2 °C
20,"CC(=O)NCC(=O)NS(=O)(=O)c1ccc(-c2c(-c3ccccc3)noc2C)cc1 [Example 82, 2-(Acetylamino)-N-[[4-(5-methyl-3-phenylisoxazol-4-yl)phenyl]sulfonyl]acetamide]",218.2 to 219.3 °C
21,"Cc1onc(-c2ccccc2)c1-c1ccc(S(=O)(=O)NCC(=O)O)cc1.O=C(O)O [Example 79, N-[[4-(5-Methyl-3-phenylisoxazol-4-yl)phenyl]sulfonyl]glycine]",242 to 248 °C
22,"CC(=O)NS(=O)(=O)c1ccc(-n2cc(C(F)(F)F)nc2-c2cc(C)cc(Cl)c2)cc1 [Example 11, N-[[4-[2-(3-Chloro-5-methylphenyl)-4-(trifluoromethyl)-1H-imidazol-1-yl]phenyl]sulfonyl]acetamide]",232 to 235 °C

row,Compound,melting point
1,"CCCC(=O)NS(=O)(=O)c1ccc(-c2c(-c3ccccc3)noc2C)cc1 [Example 24, N-[[4-(5-Methyl-3-phenylisoxazol-4-yl)phenyl]sulfonyl]butanamide]",173.2 °C
2,"COCCC(=O)NS(=O)(=O)c1ccc(-c2c(-c3ccccc3)noc2C)cc1 [Example 29, 3-Methoxy-N-[[4-(5-methyl-3-phenylisoxazol-4-yl)phenyl]sulfonyl]propanamide]",139.7 to 140.9 °C
3,"CCOCC(=O)NS(=O)(=O)c1ccc(-c2c(-c3ccccc3)noc2C)cc1 [Example 31, 2-Ethoxy-N-[[4-(5-methyl-3-phenylisoxazol-4-yl)phenyl]sulfonyl]acetamide]",131.3 to 132.2 °C
4,"CC(=O)NS(=O)(=O)c1ccc(-n2nc(C(F)(F)F)cc2-c2ccc(Cl)cc2)cc1 [Example 37, N-[[4-[5-(4-Chlorophenyl)-3-(trifluoromethyl)-1H-pyrazol-1-yl]phenyl]sulfonyl]acetamide]",161.9 to 162.7 °C
5,CCC(=O)NS(=O)(=O)c1ccc(C2=C(c3ccccc3)COC2=O)cc1 [Example 83],182.3 to 183.4 °C
6,"CC(=O)NS(=O)(=O)c1ccc(-c2c(-c3cccc(F)c3)noc2C)cc1 (as salt: sodium) [Example 13, N-[[4-[3-(3-Fluorophenyl)-5-methylisoxazol-4-yl]phenyl]sulfonyl]acetamide]",112 to 131 °C
7,"Cc1onc(-c2ccccc2)c1-c1ccc(S(=O)(=O)NCC(=O)[O-])cc1.[Na+] [Example 80, N-[[4-(5-Methyl-3-phenylisoxazol-4-yl)phenyl]sulfonyl]glycine, Sodium Salt]",216 °C (dec.)
8,"Cc1onc(-c2ccccc2)c1-c1ccc(S(=O)(=O)NC(=O)C(C)(C)C)cc1 [Example 21, 2,2-Dimethyl-N-[[4-(5-methyl-3-phenylisoxazol-4-yl)phenyl]sulfonyl]propanamide]",190.5 to 191.1 °C
9,"CCC(=O)NS(=O)(=O)c1ccc(-c2c(C)c(C)nn2-c2ccccc2)cc1 [Example 68, N-[[4-[3,4-Dimethyl-1-phenyl-1H-pyrazol-5-yl]phenyl]sulfonyl]propanamide]",187.4 to 188.7 °C
10,"CCCC(=O)NS(=O)(=O)c1ccc(-c2c(-c3ccccc3)noc2C)cc1 (as salt: sodium) [Example 25, N-[[4-(5-Methyl-3-phenylisoxazol-4-yl)phenyl]sulfonyl]butanamide, Sodium Salt]",273.5 to 277.7 °C
11,"CCCCC(=O)NS(=O)(=O)c1ccc(-c2c(-c3ccccc3)noc2C)cc1 [Example 26, N-[[4-(5-Methyl-3-phenylisoxazol-4-yl)phenyl]sulfonyl]pentanamide]",134.1 to 136.5 °C
12,"CCCC(=O)NS(=O)(=O)c1ccc(-c2c(-c3ccccc3)noc2C(F)F)cc1 [Example 56, N-[[4-[5-(Difluoromethyl)-3-phenylisoxazol-4-yl]phenyl]sulfonyl]butanamide]",154.9 to 155.9 °C
13,CCC(=O)NS(=O)(=O)c1ccc(-c2c(-c3ccccc3)noc2CO)cc1.[Na],153.5 to 157.1 °C
14,CC(=O)NS(=O)(=O)c1ccc(-c2c(-c3ccccc3)noc2C)cc1.[K],279.7 to 283.7 °C
15,"Cc1onc(-c2ccccc2)c1-c1ccc(S(=O)(=O)NC(=O)OC(C)(C)C)cc1 [Example 62, 1,1-Dimethylethyl N-[[4-(5-methyl-3-phenylisoxazol-4-yl)phenyl]sulfonyl]carbamate]",168 to 171 °C
16,"CC(=O)NS(=O)(=O)c1ccc(-c2c(-c3ccccc3)noc2COC(C)=O)cc1 [Example 73, N-[[4-[5-Acetoxymethyl-3-phenylisoxaxzol-4-yl]phenyl]sulfonyl]acetamide]",137 to 139 °C
17,CC(=O)NS(=O)(=O)c1ccc(-n2nc(C(F)(F)F)cc2-c2ccc(Cl)cc2)cc1.[Na],269.8 to 272 °C
18,"CC(=O)NS(=O)(=O)c1ccc(-n2cc(C(F)(F)F)nc2-c2cccnc2)cc1 [Example 1, N-[[4-[2-(3-Pyridinyl)-4-(trifluoromethyl)-1H-imidazol-1-yl]phenyl]sulfonyl]acetamide]",244 to 246 °C
19,"COC(=O)C(=O)NS(=O)(=O)c1ccc(-c2c(-c3ccccc3)noc2C)cc1 [Example 50, Methyl [[[4-(5-methyl-3-phenylisoxazol-4-yl)phenyl]sulfonyl]amino]oxoacetate]",171.1 to 172.3 °C
20,"Cc1onc(-c2ccccc2)c1-c1ccc(S(=O)(=O)NC(=O)CN)cc1 [Example 81, 2-Amino-N-[[4-(5-methyl-3-phenylisoxazol-4-yl)phenyl]sulfonyl]acetamide]",230.7 to 234.7 °C
21,"CC(=O)NS(=O)(=O)c1ccc(-c2c(-c3ccccc3)noc2C)cc1 [Example 39, N-[[4-[5-Methyl-3-phenylisoxazol-4-yl]phenyl]sulfonyl]acetamide]",169.3 to 170.6 °C
